Laboratory results published in patent US10004739B2, “Methods for treating cancer by inhibiting FGFR3/TACC3 fusion protein” (Astellas Pharma Inc., priority 2012, dated 2018).

Columns and labels:
[1] = test system: FGFR3-TACC3_v1 (N-FLAG) fusion polypeptide; assay: In vitro kinase activity of FGFR3-TACC3_v1 (N-FLAG) fusion polypeptide (HTRF KinEASE-TK, peptide substrate); type: biochemical, human; conditions: ATP 100 μM
[2] = test system: FGFR3-TACC3_v2 (N-FLAG) fusion polypeptide; assay: In vitro kinase activity of FGFR3-TACC3_v2 (N-FLAG) fusion polypeptide (HTRF KinEASE-TK, peptide substrate); type: biochemical, human; conditions: ATP 100 μM
[3] = test system: FGFR3-TACC3_v3 (N-FLAG) fusion polypeptide; assay: In vitro kinase activity of FGFR3-TACC3_v3 (N-FLAG) fusion polypeptide (HTRF KinEASE-TK, peptide substrate); type: biochemical, human; conditions: ATP 100 μM
[4] = test system: RT-112 cells; assay: Anchorage-independent proliferation of RT-112 bladder cancer cell line, spheroid plate, CellTiter-Glo; type: cell-based; conditions: Homo sapiens, RT-112, 120 h; final concentration 100 nM; Example 16: 2×10^3 cells per well, 5 days; read-out: growth inhibition rate (%), RT-112
Method: Moreover, as a positive control, a well added only with the medium was prepared. […] As a negative control, DMSO as a vehicle of the compound was added thereto at the same concentration (0.1%) at the time of adding the compound. Thereafter, the cells were cultured for 5 days at 37° C. in the presence of 5% CO2, and a reagent for cell count measurement (CellTiter-Glo™ Luminescent Cell Viability Assay; Promega Corporation) was added thereto. The resultant was stirred for 20 minutes, and the cell count was measured using a luminometer.
(§4) Moreover, the respective compounds were added such that the final concentration thereof became 100 nM, 10 nM, and 1 nM.

[5] = test system: FGFR3-TACC3_v1 expression/NIH3T3 cells (tumors); assay: Anti-tumorigenic activity in nude mice bearing subcutaneous tumors; type: in vivo; conditions: 30 mg/kg orally once a day for 11 days
Text: (§1) Cg-Foxn1Nu/Crlcrlj (Nu/Nu) nude mice (Charles River Laboratories, Japan) by means of subcutaneous injection performed in the back of the mice. Three days after the inoculation, AZD4547 and BGJ398 which are FGFR3-TACC3 fusion polypeptide inhibitors were started to be administered. For the test, 4 to 5 mice were assigned to each of the vehicle group and the compound group, AZD4547 and BGJ398 were suspended in a vehicle composed of 0.5% methyl cellulose (Shin-Etsu Chemical Co., Ltd.)/99.5% distilled water, and each of the compounds was orally administered at a dosage of 30 mg/kg. The administration was performed once a day for 11 days, and the body weight of mice and a tumor diameter were measured every 2 or 3 days. A tumor volume was calculated using the following formula. [Tumor volume (mm^3)]=[major axis of tumor (mm)]×[minor axis of tumor (mm)]^2×0.5

[6] = test system: FGFR3-TACC3_v2 expression/NIH3T3 cells (tumors); assay: as above; type: in vivo; conditions: 30 mg/kg orally once a day for 11 days
Text: as §1

[7] = test system: FGFR3-TACC3_v3 expression/NIH3T3 cells (tumors); assay: as above; type: in vivo; conditions: 30 mg/kg orally once a day for 11 days
Text: as §1

[8] = biological target: T1, FGFR3-TACC3 fusion polypeptide v1 (Homo sapiens, UniProt P22607); assay: Kinase inhibition in tumor: phosphorylated FGFR3/total FGFR3 by ELISA; type: in vivo, nude mice; conditions: 4 hours after the final administration; dosing as Example 13
T1 construct: expressed in transfected cells; host or cells: NIH3T3 cells infected with FGFR3-TACC3_v1/pMXs-puro retrovirus, inoculated into nude mice
Method: (§2) For the test, 5 mice were assigned to each of the vehicle group and the compound group, and 4 hours after the final administration, tumors were extracted by dissection. Thereafter, by using a lysis solution (Cell Lysis Buffer; Cell Signaling Technology, Inc., Phosphatase Inhibitor Cocktail; Thermo Fisher Scientific Inc., Complete; Roche, Ltd.), protein extracts of the tumors were rapidly prepared, and the total FGFR3 level and a phosphorylated FGFR3 level of the tumors were measured using an ELISA kit (R&D Systems). ELISA was performed according to the attached procedure manual, but detection was performed in a different way in which the chemiluminescence detection is conducted using a chemiluminescent reagent (BM chemiluminescence ELISA substrate; Roche, Ltd.) and a luminometer (ARVO; PerkinElmer Inc.).
(§3) A level obtained by correcting the phosphorylated FGFR3 level by using the total FGFR3 level (phosphorylated FGFR3 level/total FGFR3 level) was taken as a phosphorylation level.

[9] = biological target: T2, FGFR3-TACC3_v2 (Homo sapiens, UniProt P22607, F384L); assay: as above; type: in vivo, nude mice; conditions: 4 hours after the final administration; dosing as Example 13
T2 construct: in order to express a full length of ORF of FGFR3-TACC3_v2 as a protein; expressed in transfected cells; host or cells: NIH3T3 cells infected with FGFR3-TACC3_v2/pMXs-puro retrovirus, inoculated into nude mice
Method: as §2, §3

[10] = biological target: T3, FGFR3-TACC3_v3 (Homo sapiens, UniProt P22607); assay: as above; type: in vivo, nude mice; conditions: 4 hours after the final administration; dosing as Example 13
T3 construct: in order to express a full length of ORF of FGFR3-TACC3_v3 as a protein; expressed in transfected cells; host or cells: NIH3T3 cells infected with FGFR3-TACC3_v3/pMXs-puro retrovirus, inoculated into nude mice
Method: as §2, §3

[11] = test system: cells expressing FGFR3-TACC3 fusion gene; conditions: reported in Science 2012; 337:1231-5; cited from earlier work
[12] = test system: FGFR3-TACC3_v1 expression/NIH3T3 cells; assay: Anchorage-independent cell proliferation, spheroid plate, CellTiter-Glo; conditions: Mus musculus, NIH3T3, 96 h, read-out: growth inhibition rate (%), v1
Method: (§5) The FGFR3-TACC3_v1 expression/NIH3T3 cells were seeded in a 96-well spheroid plate (Sumilon Cell-Tight Spheroid 96U; SUMITOMO BAKELITE CO., LTD.) with D-MEM containing 10% fetal bovine serum, such that the cell count in each well became 1×10^3. Moreover, as a positive control, a well added only with the medium was prepared. […] As a negative control, DMSO as a vehicle of the compound was added thereto at the same concentration (0.1%) as set at the time of adding the compound. Thereafter, the cells were cultured for 4 days at 37° C. in the presence of 5% CO2, and a reagent for cell count measurement (CellTiter-Glo™ Luminescent Cell Viability Assay; Promega Corporation) was added thereto. The resultant was stirred for 20 minutes, and the cell count was measured using a luminometer.
as §4

[13] = test system: FGFR3-TACC3_v2 expression/NIH3T3 cells; assay: as above; conditions: Mus musculus, NIH3T3, 96 h, read-out: growth inhibition rate (%), v2
Method: as §5, §4

[14] = test system: FGFR3-TACC3_v3 expression/NIH3T3 cells; assay: as above; conditions: Mus musculus, NIH3T3, 96 h, read-out: growth inhibition rate (%), v3
Method: as §5, §4

Compound	Inhibition against peptide substrate FGFR3-TACC3 v1 ([1]; final concentration 1 nM)	Inhibition against peptide substrate FGFR3-TACC3 v1 ([1]; final concentration 10 nM)	Inhibition against peptide substrate FGFR3-TACC3 v1 ([1]; final concentration 100 nM)	Inhibition against peptide substrate FGFR3-TACC3 v2 ([2]; final concentration 1 nM)	Inhibition against peptide substrate FGFR3-TACC3 v2 ([2]; final concentration 10 nM)	Inhibition against peptide substrate FGFR3-TACC3 v2 ([2]; final concentration 100 nM)	Inhibition against peptide substrate FGFR3-TACC3 v3 ([3]; final concentration 1 nM)	Inhibition against peptide substrate FGFR3-TACC3 v3 ([3]; final concentration 10 nM)	Inhibition against peptide substrate FGFR3-TACC3 v3 ([3]; final concentration 100 nM)	inhibition at 0.1 µM [4]	inhibition of proliferation of tumors (tumor volume) [5]	inhibition of proliferation of tumors (tumor volume) [6]	inhibition of growth of tumors (tumor volume) [7]	reduction of tyrosine auto-phosphorylation in the tumor compared to the vehicle group [8]	reduction of tyrosine auto-phosphorylation in the tumor compared to the vehicle group [9]	reduction of tyrosine auto-phosphorylation in the tumor compared to the vehicle group [10]	proliferation of cells expressing FGFR3-TACC3 fusion gene [11]	inhibition at 0.1 µM [12]	inhibition at 0.1 µM [13]	inhibition at 0.1 µM [14]
COc1cc(CCc2cc(NC(=O)c3ccc(N4C[C@@H](C)N[C@@H](C)C4)cc3)[nH]n2)cc(OC)c1 [AZD4547, N-{5-[2-(3,5-dimethoxyphenyl)ethyl]-2H-pyrazol-3-yl}-4-[(3R,5S)-3,5-dimethylpiperazin-1-yl]benzamide]	13%	46%	69%	16%	50%	77%	9%	52%	74%	90%	51%	61%	73%	58%	54%	78%	inhibited the proliferation	74%	60%	51%
CCN1CCN(c2ccc(Nc3cc(N(C)C(=O)Nc4c(Cl)c(OC)cc(OC)c4Cl)ncn3)cc2)CC1 [BGJ398]	26%	47%	58%	8%	44%	79%	13%	38%	75%	90%	90%	90%	88%	77%	66%	85%	inhibited the proliferation	92%	90%	87%
